Experiments:
murine intestinal mucosa = assay: LPS-dependent signaling and inflammation in the murine intestinal mucosa in vivo; design: species or system mouse; details: LPS + CpG vs LPS
Excerpt: FIG. 10. Experimental design to assess whether TLR9 activation affects TLR4-mediated inflammation in vivo.
(A). Western blot showing levels of signaling molecules phospho-p38 and phospho-ERK (relative to actin) in mice which were either untreated (Ctrl) or treated with LPS, LPS+CpG, or CpG. (B) Bar graph showing serum levels of the inflammatory cytokine IL-6 in mice which were either untreated (Ctrl) or treated with LPS, LPS+CpG, or CpG.
Experiments were then designed to determine whether the above phenomena, observed in vitro, could be confirmed in vivo (see FIG. 10).

IEC-6 enterocytes = assay: Assessment of NFkB activation (nuclear:cytoplasmic ratio of p65) in IEC-6 enterocytes; assay type: cell-based; details: IEC-6 cells, LPS 50 μg/ml, CpG-DNA 1 μM, polymixin B 10 μg/ml, 1 hour
Procedure: FIG. 21. Nuclear:cytoplasmic ratio of NFκB, indicating the extent of translocation of NFκB into the nucleus, in IEC-6 cells which were either untreated (control); treated with LPS; treated with LPS and CpG; treated with LPS, CpG and polymixin B; treated with CpG; or treated with polymixin B. The concentrations used were LPS at […] CpG-DNA at 1 μM, and polymixin B at 10 μg/ml.
Assessment of NFkB activation. IEC-6 enterocytes were treated with LPS (50 μg/ml, Sigma-Aldrich, St. Louis, Mo.) and/or CpG-DNA (1 μM) either alone or in combination for 1 hour and immunostained with antibodies against the p65 subunit of NF-κB. Quantification of nuclear translocation was performed as adapted from Ding, et al. J Biol. Chem. 1998 Oct. 30; 273(44):28897-905. […] The average NF-κB p65 intensity of the cytoplasmic area was determined by subtracting the area and integrated intensity of the nuclear ROI from the nuclear+cytoplasmic ROI and dividing the cytoplasmic integrated intensity by the cytoplasmic area. The extent of p65 staining in the nucleus versus the cytoplasm (i.e. the nuclear to cytoplasmic ratio) was calculated for each cell by dividing the nuclear average NF-κB p65 intensity by the cytoplasmic average NF-κB p65 intensity. Nuclear to cytoplasmic ratio was calculated for more than 200 cells per treatment group for more than 4 separate experiments.

[1] = tested on: experimental NEC in newborn mice; assay: Murine NEC model in NFkB-GFP transgenic mice (histology, mucosal TNF-α RTPCR, NFκB activation); assay type: in vivo, mouse; details: NEC mice
Procedure: FIG. 27A-G. CpG-ODN-HS and CpG-DNA reduce the development of experimental NEC in vivo in newborn mice. Newborn NEC and control mice were injected with CpG-ODN-HS or CpG-DNA. A. Histology (H&E) of terminal ileum of breast fed mouse. B. Histology (H&E) of terminal ileum of mouse after induction of NEC. C. Histology (H&E) of terminal ileum of mouse treated with CpG-DNA, after which conditions which induced NEC were applied. D. Histology (H&E) of terminal ileum of mouse treated with CpG-ODN-HS, after which conditions which induced NEC were applied. E. Histology (H&E) of terminal ileum of breast fed mouse treated with CpG-ODN-HS. F. Histology (H&E) of terminal ileum of breast fed mouse treated with CpG-DNA. G. Severity of NEC in newborn mice as scored by a blinded pediatric pathologist. *p<0.05 vs. NEC in saline-injected mice.
FIG. 28. CpG-ODN-HS and CpG-DNA reduce the expression of mucosal TNF-α in NEC newborn mice in vivo.
FIG. 29A-D. Confocal microscopy showing the extent of NFkB activation in mice with NEC in the absence or presence of CpG-ODN-HS. CpG-ODN-HS reduces the level of NFkB activation in NEC newborn mice in vivo. The mice express NFkB-GFP, and sections were stained with anti-GFP antibody (red; arrow).
The effect of the TLR9 agonist CpG-ODN 5′ […] 3′ (SEQ ID NO:10; referred to herein as CpG-ODN-HS) on the mediator of activated TLR4, NFκB, was examined in a murine NEC model (previously described, above). The effect of CpG-ODN-HS on inflammation in the NEC murine model was also examined as a measured by TNF-α expression, which is an index of inflammation.
Materials and methods. Phosphorothioated CpG-ODN-HS and oligodeoxynucleotide (ODN) 1826 ([…]) (SEQ ID NO:6; referred to herein as CpG-DNA) were synthesized by the University of Pittsburgh DNA synthesis facility. ODNs were confirmed to be endotoxin-free by Limulus assay. NFkB-GFP antibody was obtained from Santa Cruz and Abcam. The extent of nuclear translocation was determined in an adaptation of the methodology of Ding and colleagues. In brief, a threshold limit was set based upon the emission signal for the nuclear stain DRAQ5, which therefore defined a nuclear region of interest (ROI). To define a corresponding cytoplasmic region of interest, a circular region 12 pixels beyond the nucleus was stenciled upon each cell. The average integrated pixel intensity pertaining to the corresponding NFkB emission within the cytoplasmic and nuclear regions was then determined for more than 200 cells per treatment group in at least four experiments per group, using MetaMorph software version 6.1 (Molecular Devices Corporation, Downingtown, Pa.).
Mucosal TNF-α expression was measured using quantitative real-time PCR (RTPCR). Quantitative real-time PCR in cultured enterocytes and intestinal tissue using the BioRad iCycler (Biorad, Hercules, CA) was performed as in (Leaphart, C. L., J. Cavallo, S. C. Gribar, S. Cetin, J. Li, M. F. Branca, T. D. Dubowski, C. P. Sodhi, and D. J. Hackam. 2007. A Critical Role for TLR4 in the Pathogenesis of Necrotizing Enterocolitis by Modulating Intestinal Injury and Repair. J Immunology 179:4808-4820). Oligonucleotide primer pairs used for RTPCR were as follows: forward: 5′ […] 3′ (SEQ ID NO:14), reverse: 5′ […] 3′ (SEQ ID NO:15); and forward: 5′ […] 3′ (SEQ ID NO:16), reverse: 5′ […] 3′ (SEQ ID NO:17). Gene expression was normalized to β-actin expression. Where indicated, gene expression was assessed on 2.5% agarose gels using ethidium bromide staining. […]

5′-TCCATGACGTTCCTGACGTT-3′ [CpG-DNA] was tested, and the “serum IL-6 level” value (murine intestinal mucosa; mice) was “attenuated”, the “level of phosphorylated ERK (LPS-dependent signaling)” value (murine intestinal mucosa; murine intestinal mucosa) was “attenuated” and the “level of phosphorylated p38 (LPS-dependent signaling)” value (murine intestinal mucosa; murine intestinal mucosa) was “attenuated”. The “LPS-induced translocation of NFκB into the nucleus (nuclear:cytoplasmic ratio)” value (IEC-6 enterocytes) was “significantly inhibited translocation”, the “level of expression of mucosal TNF-α in terminal ileum” value ([1]; RTPCR) was “reduced” and the “NEC pathology (histology of terminal ileum)” value ([1]; treated vs untreated) was “inhibition of the NEC pathology”.
